Measured values published in the NIST ThermoML archive (doi:10.1016/j.jct.2012.06.023).

Experiment: xn = mol fraction of the nth substance listed
Details: for surface tension liquid-gas: Wilhelmy plate; for viscosity: 101 kPa, Liquid, Concentric cylinders viscometry

CCCCCO [pentan-1-ol] + CN(C)C=O
Details	surface tension liquid-gas, 298.15 K [mN/m]	surface tension liquid-gas, 303.15 K [mN/m]	surface tension liquid-gas, 308.15 K [mN/m]	surface tension liquid-gas, 313.15 K [mN/m]	viscosity, 298.15 K [mPa·s]	viscosity, 303.15 K [mPa·s]	viscosity, 308.15 K [mPa·s]	viscosity, 313.15 K [mPa·s]
x2 = 0	24.55	23.6	22.54	21.94	3.5	3.051	2.664	2.335
x2 = 0.0793	24.71	23.72	22.64	22	2.973	2.585	2.259	1.98
x2 = 0.2866	25.53	24.43	23.31	22.57	1.863	1.608	1.414	1.24
x2 = 0.4261	26.4	25.25	24.11	23.3	1.395	1.205	1.069	0.9427
x2 = 0.5048	27.02	25.85	24.69	23.84	1.241	1.076	0.962	0.8525
x2 = 0.6254	28.21	27.01	25.84	24.94	1.069	0.939	0.8498	0.7611
x2 = 0.6638	28.68	27.48	26.31	25.4	1.021	0.9012	0.8193	0.7366
x2 = 0.7952	30.84	29.66	28.51	27.56	0.9068	0.8182	0.7558	0.6895
x2 = 0.8706	32.34	31.19	30.05	29.08	0.8572	0.797	0.7501	0.6882
x2 = 0.9363	33.8	32.67	31.56	30.58	0.8373	0.783	0.7386	0.6836

CCCCCCCO [heptan-1-ol] + CN(C)C=O
Details	surface tension liquid-gas, 298.15 K [mN/m]	surface tension liquid-gas, 303.15 K [mN/m]	surface tension liquid-gas, 308.15 K [mN/m]	surface tension liquid-gas, 313.15 K [mN/m]	viscosity, 298.15 K [mPa·s]	viscosity, 303.15 K [mPa·s]	viscosity, 308.15 K [mPa·s]	viscosity, 313.15 K [mPa·s]
x2 = 0	26.47	25.38	24.33	23.5	5.944	5.069	4.333	3.726
x2 = 0.1852	27.06	25.94	24.87	24.01	3.662	3.061	2.599	2.21
x2 = 0.3466	27.51	26.35	25.25	24.34	2.48	2.044	1.734	1.465
x2 = 0.4928	27.98	26.77	25.64	24.69	1.77	1.452	1.238	1.048
x2 = 0.6004	28.74	27.52	26.38	25.41	1.432	1.183	1.021	0.8722
x2 = 0.6878	29.48	28.25	27.1	26.11	1.224	1.026	0.898	0.7775
x2 = 0.7679	30.53	29.32	28.17	27.17	1.079	0.9233	0.8218	0.7462
x2 = 0.8369	31.64	30.44	29.3	28.3	0.9874	0.8807	0.7949	0.7165
x2 = 0.8984	32.86	31.7	30.57	29.57	0.918	0.8403	0.7775	0.7082
x2 = 0.951	34.06	32.93	31.82	30.82	0.8665	0.8038	0.7541	0.6934
